Measured values from patent US6458817B1, “Substituted arylsulfides, arylsulfoxides and arylsulfones as beta-3 adrenergic receptor agonists” (Wyeth, priority 2000, dated 2002).

Experiments:
[1] = target: T1, human β3 adrenergic receptor (Homo sapiens, UniProt P13945); assay: cAMP accumulation (SPA) in CHO cells transfected with human β3 adrenergic receptor; type: cell-based; conditions: for EC50: CHO cells expressing human β3-AR, cAMP by SPA, 30 min incubation, 10^-9M to 10^-5M; for IA(β3): maximal response relative to isoproterenol at 10^-5M (IA=% activity compound/% activity isoproterenol)
T1 construct: Full length β3 AR clones (402 amino acids) containing the last 6 amino acids of hβ3—AR are prepared; expressed in transfected cells; host or cells: CHO cells
Procedure: The ability of compounds of this invention to treat or inhibit disorders related to insulin resistance or hyperglycemia was established with representative compounds of this invention in the following standard pharmacological test procedures, which measured the binding selectivity to the β1, β2, and β3 adrenergic receptors. Binding to the receptors was measured in Chinese Hamster ovary (CHO) cells that were transfected with adrenergic receptors. The following briefly summarizes the procedures used and results obtained.
Cloning of Human β3-AR Genomic DNA: cDNA was constructed by ligating four polymerase chain reaction (PCR) products using the following primers: an ATG-Narl fragment, sense primer 5′-[…]3′ and anti-sense primer 5′[…]3′; a Narl-Accl fragment, 5′[…]3′ as sense and 5′[…]3′ as anti-sense primer; an Accli-Styl fragment, sense primer 5′[…]3′ and anti-sense primer 5′[…]3′ and a Styl-TAG fragment, with sense primer 5′[…]3′ and anti-sense primer 5′[…]3′. The corresponding primer sequences are described in Mantzoros, C. S., et. al., Diabetes 45: 909-914 (1996). The four fragments are ligated into a pUC 18 plasmid (Gibco-BRL) and sequenced. Full length β3 AR clones (402 amino acids) containing the last 6 amino acids of hβ3—AR are prepared with the β3-βARpcDNA3 from ATTC.
Binding Procedure: Clones expressing receptor levels of 70 to 110 fmoles/mg protein were used in the test procedures. CHO cells were grown in 24-well tissue culture plates in Dulbecco's Modified Eagle Media with 10% fetal bovine serum, MEM non-essential amino acids, Penicillin-Streptompycin and Geneticin. On the day of test procedure, growth medium was replaced with preincubation media (Dulbecco's Modified Eagle Media and incubated for 30 minutes at 37° C. Preincubation medium was replaced with 0.2 ml treatment medium containing DMEM media containing 250 μM IBMX (isobutyl-1-methylxantine) plus 1 mM ascorbic acid with test compound dissolved in DMSO. Test compounds were tested over a concentration range of 10^−9M to 10^−5M for β3 cells and 10^−8 to 10^−4M for β1 and β2 transfected cells. Isoproterenol (10^−5M) was used as an internal standard for comparison of activity. Cells were incubated at 37° C. on a rocker for 30 min with the β3 cells and 15 min for β1 and β2 cells. Incubation was stopped with the addition of 0.2N HCl and neutralized with 2.5N NaOH. The plates, containing the cells and neutralized media, were stored at −20 degrees celsius until ready to test for cAMP using the SPA test kit (Amersham).
Data Analysis and Results: Data collected from the SPA test procedure were analyzed as per cent of the maximal isoproterenol response at 10^−5M. Activity curves were plotted using the SAS statistical and graphics software. EC50 values were generated for each compound and the maximal response (IA) developed for each compound is compared to the maximal response of isoproternol at 10^−5M from the following formula:
IA=% activity compound/% activity isoproterenol

T1 sequence (P13945 whole entry): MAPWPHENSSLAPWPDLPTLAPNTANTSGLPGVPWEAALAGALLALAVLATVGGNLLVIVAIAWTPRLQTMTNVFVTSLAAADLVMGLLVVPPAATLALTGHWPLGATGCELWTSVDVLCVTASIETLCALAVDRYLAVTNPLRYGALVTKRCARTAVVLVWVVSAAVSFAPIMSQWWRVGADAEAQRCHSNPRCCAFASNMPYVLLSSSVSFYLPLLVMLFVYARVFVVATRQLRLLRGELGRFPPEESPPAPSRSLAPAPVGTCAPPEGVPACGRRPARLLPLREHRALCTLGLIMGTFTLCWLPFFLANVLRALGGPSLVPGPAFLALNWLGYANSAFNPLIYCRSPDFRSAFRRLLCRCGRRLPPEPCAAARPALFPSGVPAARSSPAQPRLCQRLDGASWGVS

EC50 [1] [nM]	melting point [°C]	IA(β3) [1]	Structure (SMILES)
33	–	1.1	COc1ccc(-c2nc(CS(=O)(=O)c3ccc(CCNC[C@H](O)COc4ccc(O)cc4)cc3)no2)cc1 [Example 29, 4[((2S)-2-hydroxy-3-{[4-({[5-(4-methoxyphenyl)-1,2,4-oxadiazol-3-yl]methyl}sulfonyl)phenethyl]amino}propyl)oxy]phenol]
431	51 to 57	0.62	[O-][S+](Cc1noc(Cc2ccccc2)n1)c1ccc(CCNC[C@H](O)COc2ccc(O)cc2)cc1 (stereo partly drawn) [Example 24, 4-({(2S)-3-[(4-{[(5-benzyl-1,2,4-oxadiazol-3-yl)methyl]sulfinyl}phenethyl)amino]-2-hydroxypropyl}oxy)phenol]
330	–	1.2	CC(C)(C)c1nc(CSc2ccc(CCNC[C@H](O)COc3ccc(O)cc3)cc2)no1 [Example 32, (2S)-4-(3-{2-[4-(5-tert-Butyl-[1,2,4]oxadiazol-3-ylmethylsulfanyl) -phenyl]-ethylamino}-2-hydroxy-propoxy)-phenol]

The remaining lines, values behind:

Structure (SMILES)	EC50 [1] [nM]	melting point [°C]	IA(β3) [1]
Cc1noc(C)c1-c1nc(CS(=O)(=O)c2ccc(CCNC[C@H](O)COc3ccc(O)cc3)cc2)no1 [Example 12, 4-[((2S)-3-{[4-({[5-(3,5-dimethyl-4-isoxazolyl)-1,2,4-oxadiazol-3-yl]methyl}sulfonyl)phenethyl]amino}-2-hydroxypropyl)oxy]phenol]	70	–	–
O=S(=O)(Cc1noc(-c2ccccc2)n1)c1ccc(CCNCC(O)c2ccc(OC(F)(F)F)cc2)cc1 (stereo not drawn) [Example 8, 2-[(4{[(5-phenyl-1,2,4-oxadiazol-3-yl)methyl]sulfonyl}phenethyl)amino]-1-[4-(trifluoromethoxy)phenyl]-1-ethanol]	–	125 to 127	–
CC(C)(C)c1nc(CS(=O)(=O)c2ccc(CCNC[C@H](O)COc3ccc(O)cc3)cc2)no1 [Example 15, 4-[((2S)-3-{[4-({[5-(tert-butyl)-1,2,4-oxadiazol-3-yl]methyl}sulfonyl)phenethyl]amino}-2-hydroxypropyl)oxy]phenol]	28	–	0.92
COc1ccc(-c2nc(CS(=O)(=O)c3ccc(CCNC[C@H](O)c4ccc(O)c(NS(C)(=O)=O)c4)cc3)no2)cc1 [Example 27, N-[2-hydroxy-5-((1R)-1-hydroxy-2-{[4-({[5-(4-methoxyphenyl)-1,2,4-oxadiazol-3-yl]methyl}sulfonyl)phenethyl]amino}ethyl)phenyl]methanesulfonamide]	25	–	1
Cc1ccc(-c2noc(CSc3ccc(CCNC[C@H](O)COc4cccc5[nH]nnc45)cc3)n2)cc1 [Example 33, (2S)-1-(1H-1,2,3-benzotriazol-4-yloxy)-3-{[4-({[3-(4-methylphenyl)-1,2,4-oxadiazol-5-yl]methyl}sulfanyl)phenethyl]amino}-2-propanol]	789	110	0.44
COc1ccc(-c2nc(CS(=O)(=O)c3ccc(CCNC[C@H](O)COc4ccc(O)c(C)c4)cc3)no2)cc1 [Example 19, 4-[((2S)-2-hydroxy-3-{[4-({[5-(4-methoxyphenyl)-1,2,4-oxadiazol-3-yl]methyl}sulfonyl)phenethyl]amino}propyl)oxy]-2-methylphenol]	68	–	0.95
